Data taken from patent US20230375528A1, “SCREENING METHOD FOR THE IDENTIFICATION OF NOVEL THERAPEUTIC COMPOUNDS” (European Molecular Biology Laboratory, priority 2020, published 2023).

Test system: RNA
Assay: Flag immunoprecipitation and PNK assay of ENO1 variants in pluripotent mESCs
Type: cell-based, mouse
Conditions: murine ENO1 variants from Rosa26 locus, ENO1 knockout
Procedure: Cells expressing Eomes-mCherry or Brachyury-BFP after seven days of LIF withdrawal were sorted for the respective fluorescent marker proteins, cultured for an additional five days and lactate accumulation in the culture medium was quantified (n=3). The standard deviation is given and the statistically significant differences were detected using the two-tailed Student's t-test. b. Cellular RNA-protein interactions were cross-linked with UV and a PNK assay was performed for cell populations described in a. A representative experiment is shown and was performed for a total of three times. Non-crosslinked (No CL), unsorted (us.) mESC were used as specificity controls. Immunoblots of ENO1 and actin are shown as controls. c. […] RNA binding was measured for the three ENO1 variants by Flag immunoprecipitation and PNK assay after UV cross-linking in pluripotent mESCs. […] The standard deviation is given and the statistically significant differences were detected using the two-tailed Student's t-test when comparing to ENO1wt. d. […] The standard deviation is given and the statistically significant differences were detected using the two-tailed Student's t-test when comparing to ENO1wt. e.-g. […] The standard deviation is given and the statistically significant differences were detected using two-way ANOVA with Tukey-corrected multiple comparison testing when comparing to ENO1wt. […]

RNA binding compared to ENO1wt: decrease in RNA binding
Substance: ENO1down: ENO1 mutant K343A with reduced RNA binding
